{"source": "paper PMC11078990", "about": "“Identification and characterization of small molecule inhibitors of the LINE-1 retrotransposon endonuclease” (Nature Communications, 2024)", "key": {"[1]": {"biological_target": "T1, APE1 (Homo sapiens, UniProt P27695)", "T1 construct": "purchased New England Biolabs (NEB) M0282S", "experiment": "APE1 fluorescent oligonucleotide activity assay (abasic site substrate)", "type": "biochemical"}, "[2]": {"tested_on": "L1 retrotransposition", "experiment": "HeLa dual-luciferase L1 retrotransposition assay", "type": "cell-based, human", "settings": "for L1 retrotransposition, average: average of 4 replicates, Figure 4b"}, "[3]": {"tested_on": "HeLa Tet-On cells", "settings": "human, 48 h, 25 μM"}, "[4]": {"tested_on": "DNA fragmentation (comet tail length) in HeLa Tet-On cells expressing EN domain", "experiment": "Neutral comet assay, EN domain-only constructs", "type": "cell-based, human", "settings": "25 μM inhibitor; EN domain-only construct; neutral comet assay; normalised to WT"}, "[5]": {"tested_on": "L1-induced DNA damage in HeLa Tet-On cells (EN domain only)", "experiment": "γ-H2AX immunofluorescence assay, EN domain-only constructs", "type": "cell-based, human"}, "[6]": {"biological_target": "L1 EN (LINE-1 retrotransposon endonuclease domain) (Homo sapiens, UniProt O00370, N5T)", "sequence (O00370 1-239 N5T)": "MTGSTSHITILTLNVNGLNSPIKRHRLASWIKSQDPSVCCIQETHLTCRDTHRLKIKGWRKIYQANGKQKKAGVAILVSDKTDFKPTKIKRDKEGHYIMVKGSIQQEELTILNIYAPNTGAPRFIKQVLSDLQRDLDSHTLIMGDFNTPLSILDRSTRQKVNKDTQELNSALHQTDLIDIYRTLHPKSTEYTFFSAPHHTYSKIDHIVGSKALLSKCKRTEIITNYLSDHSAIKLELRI", "experiment": "Fluorescent oligonucleotide EN nicking activity assay", "type": "biochemical", "settings": "technical replicates 1-3, Fig. 2b source data"}, "[7]": {"tested_on": "substrate oligonucleotide used in the EN activity assay", "type": "binding", "parameters": "key to Binding Detected? (Y/N): Binding Detected? (Y/N); Binding Detected? (Y/N)"}}, "note": "Values joined by “and” are separate entries in the source; they are usually repeats but may differ in a detail not shown here. Identical values can stand only once.", "data": [{"compound": "Nn1cnn2c(SCC(=O)Cc3ccc(-c4nc5cc(NC(=O)CSc6nnc7n(N)cnn67)ccc5o4)cc3)nnc12", "note": "[AD16]", "values": [{"measurement": "APE1 percent activity, Replicate 1", "setting": "[1]; compound at 25 μM, Replicate 1", "value": 93.7909, "unit": "%"}, {"measurement": "APE1 percent activity, Replicate 2", "setting": "[1]; compound at 25 μM, Replicate 2", "value": 100.33, "unit": "%"}, {"measurement": "APE1 percent activity, Replicate 3", "setting": "[1]; compound at 25 μM, Replicate 3", "value": 92.4773, "unit": "%"}, {"measurement": "APE1 percent activity, average", "setting": "[1]; compound at 25 μM, average of 3 replicates", "value": 95.5327, "unit": "%"}, {"measurement": "activity at 25 µM", "setting": "[1]; inhibitors at 25 μM, relative to 0 μM inhibitor control, mean ± s.d., 3 independent experiments, read-out: APE1 activity (%)", "value": "95.5 ± 4.2", "unit": "%"}, {"measurement": "L1 retrotransposition, average", "setting": "[2]; 0.5 μM inhibitor", "value": 6.997}, {"measurement": "L1 retrotransposition, average", "setting": "[2]; 1 μM inhibitor", "value": 6.79}, {"measurement": "L1 retrotransposition, average", "setting": "[2]; 5 μM inhibitor", "value": 6.3671}, {"measurement": "L1 retrotransposition, average", "setting": "[2]; 10 μM inhibitor", "value": 6.224}, {"measurement": "L1 retrotransposition, average", "setting": "[2]; 25 μM inhibitor", "value": 5.375}, {"measurement": "L1 retrotransposition, average", "setting": "[2]; 50 μM inhibitor", "value": 4.14}, {"measurement": "Luciferase (retrotransposition), average", "setting": "[2]; Figure 4a Graph 1, 25 μM, 0 μM average 9.554", "value": 3.568}, {"measurement": "Luciferase (retrotransposition), replicates", "setting": "[2]; Figure 4a Graph 1, 25 μM, Replicates 1-4, 0 μM average 9.554", "value": "3.791 and 3.903 and 3.817 and 2.762"}, {"measurement": "PrestoBlue (viability), average", "setting": "[3]", "value": 13.01}, {"measurement": "Nuclei comet tail length, average (WT = 1)", "setting": "[4]", "value": 0.5888}, {"measurement": "Inhibition of DNA damage, EN domain-only experiments", "setting": "[5]", "value": "better efficacy"}, {"measurement": "EN activity, percent of no inhibitor control", "setting": "[6]; [Inhibitor] 0.2 μM, 0.2 µM", "value": "82.0267% and 71.1107% and 113.489%"}, {"measurement": "EN activity, percent of no inhibitor control", "setting": "[6]; [Inhibitor] 1 μM, 1 µM", "value": "95.0279% and 119.352% and 94.1929%"}, {"measurement": "EN activity, percent of no inhibitor control", "setting": "[6]; [Inhibitor] 5 μM, 5 µM", "value": "53.9202% and 53.7999%"}, {"measurement": "remaining activity at 5 µM", "setting": "[6]; [Inhibitor] 5 μM, read-out: EN activity, percent of no inhibitor control", "value": 52.1, "unit": "%"}, {"measurement": "EN activity, percent of no inhibitor control", "setting": "[6]; [Inhibitor] 10 μM, 10 µM", "value": "8.722% and 8.848%"}, {"measurement": "remaining activity at 10 µM", "setting": "[6]; [Inhibitor] 10 μM, read-out: EN activity, percent of no inhibitor control", "value": 9.85, "unit": "%"}, {"measurement": "EN activity, percent of no inhibitor control", "setting": "[6]; [Inhibitor] 25 μM, 25 µM", "value": "4.539% and 2.3611%"}, {"measurement": "remaining activity at 25 µM", "setting": "[6]; [Inhibitor] 25 μM, read-out: EN activity, percent of no inhibitor control", "value": 3.82, "unit": "%"}, {"measurement": "EN activity, percent of no inhibitor control", "setting": "[6]; [Inhibitor] 50 μM, 50 µM", "value": "5.5014% and 3.599%"}, {"measurement": "remaining activity at 50 µM", "setting": "[6]; [Inhibitor] 50 μM, read-out: EN activity, percent of no inhibitor control", "value": 5.19, "unit": "%"}, {"measurement": "EN activity, percent of no inhibitor control", "setting": "[6]; [Inhibitor] 100 μM, 100 µM", "value": "3.629% and 2.352%"}, {"measurement": "remaining activity at 100 µM", "setting": "[6]; [Inhibitor] 100 μM, read-out: EN activity, percent of no inhibitor control", "value": 2.31, "unit": "%"}, {"measurement": "Binding Detected? (Y/N)", "setting": "[7]", "value": "Y"}, {"measurement": "Binding to the oligonucleotide substrate", "setting": "[7]", "value": "detectable binding"}]}]}
